The values below come from ChEMBL document CHEMBL5537170, “Design, Synthesis, and Anti-Osteoporotic Characterization of Arginine N-Glycosylated Teriparatide Analogs via the Silver-catalyzed Solid-Phase Glycosylation Strategy” (J Med Chem, 2024).

Structures are written as SMILES.

This series in a line: Cytotoxicity against C57BL/6 mouse Pre-Osteoblast cells assessed as cell death upto 5 uM incubated for 4 days by CCK-8 assay. In kind it is toxicity, cell-based. As to conditions: 96 h, time 4 day.
Take `CC[C@H](C)[C@H](NC(=O)[C@H](CCC(=O)O)NC(=O)[C@H](CO)NC(=O)[C@@H](NC(=O)[C@H](CO)NC(C)=O)C(C)C)C(=O)N[C@@H](CCC(N)=O)C(=O)N[C@@H](CC(C)C)C(=O)N[C@@H](CCSC)C(=O)N[C@@H](Cc1cnc[nH]1)C(=O)N[C@@H](CC(N)=O)C(=O)N[C@@H](CC(C)C)C(=O)NCC(=O)N[C@@H](CCCCN)C(=O)N[C@@H](Cc1cnc[nH]1)C(=O)N[C@@H](CC(C)C)C(=O)N[C@@H](CC(N)=O)C(=O)N[C@@H](CO)C(=O)N[C@@H](CCSC)C(=O)N[C@@H](CCC(=O)O)C(=O)N[C@@H](CCCNC(=N)N[C@@H]1O[C@H](CO)[C@@H](O[C@@H]2O[C@H](CO)[C@H](O)[C@H](O)[C@H]2O)[C@H](O)[C@H]1O)C(=O)N[C@H](C(=O)N[C@@H](CCC(=O)O)C(=O)N[C@@H](Cc1c[nH]c2ccccc12)C(=O)N[C@@H](CC(C)C)C(=O)N[C@@H](CCCNC(=N)N)C(=O)N[C@@H](CCCCN)C(=O)N[C@@H](CCCCN)C(=O)N[C@@H](CC(C)C)C(=O)N[C@@H](CCC(N)=O)C(=O)N[C@@H](CC(=O)O)C(=O)N[C@H](C(=O)N[C@@H](Cc1cnc[nH]1)C(=O)N[C@@H](CC(N)=O)C(=O)N[C@@H](Cc1ccccc1)C(N)=O)C(C)C)C(C)C`: the Activity entry was “Non-Toxic”.

Take `CC[C@H](C)[C@H](NC(=O)[C@H](CCC(=O)O)NC(=O)[C@H](CO)NC(=O)[C@@H](NC(=O)[C@H](CO)NC(C)=O)C(C)C)C(=O)N[C@@H](CCC(N)=O)C(=O)N[C@@H](CC(C)C)C(=O)N[C@@H](CCSC)C(=O)N[C@@H](Cc1cnc[nH]1)C(=O)N[C@@H](CC(N)=O)C(=O)N[C@@H](CC(C)C)C(=O)NCC(=O)N[C@@H](CCCCN)C(=O)N[C@@H](Cc1cnc[nH]1)C(=O)N[C@@H](CC(C)C)C(=O)N[C@@H](CC(N)=O)C(=O)N[C@@H](CO)C(=O)N[C@@H](CCSC)C(=O)N[C@@H](CCC(=O)O)C(=O)N[C@@H](CCCNC(=N)N[C@@H]1O[C@@H](C)[C@H](O)[C@@H](O)[C@H]1O)C(=O)N[C@H](C(=O)N[C@@H](CCC(=O)O)C(=O)N[C@@H](Cc1c[nH]c2ccccc12)C(=O)N[C@@H](CC(C)C)C(=O)N[C@@H](CCCNC(=N)N)C(=O)N[C@@H](CCCCN)C(=O)N[C@@H](CCCCN)C(=O)N[C@@H](CC(C)C)C(=O)N[C@@H](CCC(N)=O)C(=O)N[C@@H](CC(=O)O)C(=O)N[C@H](C(=O)N[C@@H](Cc1cnc[nH]1)C(=O)N[C@@H](CC(N)=O)C(=O)N[C@@H](Cc1ccccc1)C(N)=O)C(C)C)C(C)C`: the Activity result was “Non-Toxic”.

`CC[C@H](C)[C@H](NC(=O)[C@H](CCC(=O)O)NC(=O)[C@H](CO)NC(=O)[C@@H](NC(=O)[C@H](CO)NC(C)=O)C(C)C)C(=O)N[C@@H](CCC(N)=O)C(=O)N[C@@H](CC(C)C)C(=O)N[C@@H](CCSC)C(=O)N[C@@H](Cc1cnc[nH]1)C(=O)N[C@@H](CC(N)=O)C(=O)N[C@@H](CC(C)C)C(=O)NCC(=O)N[C@@H](CCCCN)C(=O)N[C@@H](Cc1cnc[nH]1)C(=O)N[C@@H](CC(C)C)C(=O)N[C@@H](CC(N)=O)C(=O)N[C@@H](CO)C(=O)N[C@@H](CCSC)C(=O)N[C@@H](CCC(=O)O)C(=O)N[C@@H](CCCNC(=N)N[C@@H]1O[C@H](CO)[C@H](O)[C@H](O)[C@H]1O)C(=O)N[C@H](C(=O)N[C@@H](CCC(=O)O)C(=O)N[C@@H](Cc1c[nH]c2ccccc12)C(=O)N[C@@H](CC(C)C)C(=O)N[C@@H](CCCNC(=N)N)C(=O)N[C@@H](CCCCN)C(=O)N[C@@H](CCCCN)C(=O)N[C@@H](CC(C)C)C(=O)N[C@@H](CCC(N)=O)C(=O)N[C@@H](CC(=O)O)C(=O)N[C@H](C(=O)N[C@@H](Cc1cnc[nH]1)C(=O)N[C@@H](CC(N)=O)C(=O)N[C@@H](Cc1ccccc1)C(N)=O)C(C)C)C(C)C`: the Activity entry is “Non-Toxic”.
